How the values were obtained:
Conditions in all cases: incubation time: 72 h
[1] = test system: MDA-MB-453; test: normalised viability (% of control), CellTiter-Blue; higher = more viable cells (about 100 = DMSO control)
Method in brief: (§1)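 384-well plates were pre-loaded with compound in 5 µl medium before 20 µl of breast cancer cell suspension was seeded. Following 72 h incubation, 2.5 µl CellTiter-Blue reagent was added for 2 h at 37 °C. Fluorescence was read at 560/590 nm and plates were normalised to vehicle (100) and a positive kill control (0), checked by Z'-factor. Normalised viability is reported at a single listed concentration of the series.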

[2] = test system: MDA-MB-436; test: as above
Method in brief: as §1

[3] = test system: DU-4475; test: as above
Method in brief: as §1

[4] = test system: BT-549; test: as above
Method in brief: as §1

[5] = test system: HCC1599; test: normalised viability (% of control), CellTiter-Blue; higher = more viable cells (about 100 = DMSO control)
Protocol: (§2)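 DSRT, CellTiter-Blue viability, 72 h incubation. Signal is normalised to DMSO and benzethonium chloride controls. Value is the normalised response at dose 3.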

[6] = test system: MDA-MB-453; test: as above; remark: listed apart in the source
Protocol: as §2

[7] = test system: MDA-MB-436; test: as above; remark: listed apart in the source
Protocol: as §2

[8] = test system: SK-BR-3; test: as above
Protocol: as §2

[9] = test system: CAL-148; test: as above
Protocol: as §2

[10] = test system: MDA-MB-468; test: as above
Protocol: as §2

[11] = test system: CAL-85-1; test: as above
Protocol: as §2

[12] = test system: BT-474; test: as above
Protocol: as §2

[13] = test system: MFM-223; test: as above
Protocol: as §2

[14] = test system: HCC1937; test: as above
Protocol: as §2

[15] = test system: CAL-120; test: as above
Protocol: as §2

[16] = test system: DU-4475; test: as above; remark: listed apart in the source
Protocol: as §2

[17] = test system: CAL-51; test: as above
Protocol: as §2

[18] = test system: BT-549; test: as above; remark: listed apart in the source
Protocol: as §2

[19] = test system: Hs578T; test: as above
Protocol: as §2

[20] = test system: HCC1143; test: as above
Protocol: as §2

[21] = test system: MDA-MB-231; test: as above
Protocol: as §2

[22] = test system: HDQ-P1; test: as above
Protocol: as §2

[23] = test system: CAL-148; test: drug sensitivity score (DSS), CellTox Green (DSS (AUC-based score)); higher = stronger drug effect (viability inhibition or cytotoxicity); extreme values may be limits of the assay
Method in brief: (§3)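 The drug sensitivity score was computed from the area under the fitted dose-response curve. Breast cancer cell lines in 20 µl suspension went into 384-well plates holding compound at 5 concentrations (10-fold steps over a 10,000-fold, compound-specific range) for 72 h of incubation. CellTox Green fluorescence (485/520 nm) was read before CellTiter-Glo luminescence, the latter after 10 min at room temperature, and each plate was normalised to 0.1 % DMSO and a positive kill control.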

[24] = test system: CAL-85-1; test: as above
Method in brief: as §3

[25] = test system: BT-474; test: as above
Method in brief: as §3

[26] = test system: HCC1937; test: as above
Method in brief: as §3

[27] = test system: Hs578T; test: as above
Method in brief: as §3

[28] = test system: HCC1143; test: as above
Method in brief: as §3

[29] = test system: MDA-MB-231; test: as above
Method in brief: as §3

NCC(=O)CCC(=O)O [Aminolevulinic acid]
normalised viability ([1]; 3 nM): 110%
normalised viability ([1]; 30 nM): 93.5%
normalised viability ([1]; 100 nM): 90.2%
normalised viability ([2]; 10 nM): 99.1%
normalised viability ([2]; 1000 nM): 102%
normalised viability ([2]; 10000 nM): 96.5%
normalised viability ([3]; 3 nM): 104%
normalised viability ([3]; 30 nM): 77.5%
normalised viability ([3]; 100 nM): 110%
normalised viability ([4]; 10 nM): 85.6%
normalised viability ([4]; 1000 nM): 84.1%
normalised viability ([4]; 10000 nM): 90%
normalised viability ([5]; 100 nM): 87.9%
normalised viability ([6]; 10 nM): 99.1%
normalised viability ([7]; 100 nM): 104%
normalised viability ([8]; 100 nM): 99%
normalised viability ([9]; 10 nM): 104%
normalised viability ([10]; 100 nM): 103%
normalised viability ([11]; 10 nM): 98.4%
normalised viability ([12]; 100 nM): 114%
normalised viability ([13]; 100 nM): 91.7%
normalised viability ([14]; 100 nM): 91%
normalised viability ([15]; 100 nM): 99.7%
normalised viability ([16]; 10 nM): 104%
normalised viability ([17]; 10 nM): 101%
normalised viability ([18]; 100 nM): 104%
normalised viability ([19]; 100 nM): 101%
normalised viability ([20]; 100 nM): 88.9%
normalised viability ([21]; 100 nM): 110%
normalised viability ([22]; 10 nM): 100%

NC(=O)Nc1cc(-c2cccc(F)c2)sc1C(=O)N[C@H]1CCCNC1 [AZD 7762]
normalised viability ([1]; 0.3 nM): 113%
normalised viability ([1]; 3 nM): 93.2%
normalised viability ([1]; 10 nM): 108%
normalised viability ([2]; 1 nM): 99%
normalised viability ([2]; 100 nM): 83.7%
normalised viability ([2]; 1000 nM): 18.5%
normalised viability ([3]; 0.3 nM): 99.3%
normalised viability ([3]; 3 nM): 109%
normalised viability ([3]; 10 nM): 100%
normalised viability ([4]; 1 nM): 114%
normalised viability ([4]; 100 nM): 118%
normalised viability ([4]; 1000 nM): 35.5%
normalised viability ([5]; 10 nM): 101%
normalised viability ([6]; 1 nM): 104%
normalised viability ([7]; 10 nM): 96.1%
normalised viability ([8]; 10 nM): 97.6%
normalised viability ([9]; 1 nM): 105%
normalised viability ([10]; 10 nM): 107%
normalised viability ([11]; 1 nM): 99.8%
normalised viability ([12]; 10 nM): 124%
normalised viability ([13]; 10 nM): 96.2%
normalised viability ([14]; 10 nM): 105%
normalised viability ([15]; 10 nM): 114%
normalised viability ([16]; 1 nM): 113%
normalised viability ([17]; 1 nM): 100%
normalised viability ([18]; 10 nM): 120%
normalised viability ([19]; 10 nM): 104%
normalised viability ([20]; 10 nM): 105%
normalised viability ([21]; 10 nM): 114%
normalised viability ([22]; 1 nM): 115%

N#CCNC(=O)c1ccc(-c2ccnc(Nc3ccc(N4CCOCC4)cc3)n2)cc1 [Momelotinib]
drug sensitivity score [23]: 0
drug sensitivity score [24]: 4.03
drug sensitivity score [25]: 0
drug sensitivity score [26]: 0
drug sensitivity score [27]: 0
drug sensitivity score [28]: 0
drug sensitivity score [29]: 7.53

CS(=O)(=O)c1ccc(C2=C(c3ccccc3)C(=O)OC2)cc1 [Rofecoxib]
drug sensitivity score [23]: 0
drug sensitivity score [24]: 0
drug sensitivity score [25]: 1.58
drug sensitivity score [26]: 1.95
drug sensitivity score [27]: 0
drug sensitivity score [28]: 0
drug sensitivity score [29]: 0

O=C(CCCCCCC(=O)Nc1ccc([C@H]2O[C@@H](CSc3nc(-c4ccccc4)c(-c4ccccc4)o3)C[C@@H](c3ccc(CO)cc3)O2)cc1)NO [Tubacin]
drug sensitivity score [23]: 0
drug sensitivity score [24]: 5.67
drug sensitivity score [25]: 1.77
drug sensitivity score [26]: 10.6
drug sensitivity score [27]: 0.503
drug sensitivity score [28]: 2.07
drug sensitivity score [29]: 7.97

Reference: the supplement of paper PMC4862054
